Columns and labels:
C57BL/6 male mice [1] = experiment: Survival of mice after abdominal X-ray irradiation (Example 2); format: in vivo
Experimental: C57BL/6 male mice (26.7±1.0 g in body weight) aged 10 weeks were divided into two groups of 10 mice each. After acclimating to the environment, JAC4 (100 mg/kg) or an equal volume of vehicle (polyethylene glycol:ethanol:physiological saline=47.5:7.5:50, v/v/v) was orally administered to the mice once daily for 7 consecutive days. After that, the mice were subjected to abdominal X-ray irradiation (12 Gy) and JAC4 or vehicle treatment was continued. After 3 days, the administration of JAC4 or vehicle was discontinued. The status was observed daily and the body weights of the mice were recorded.

C57BL/6 male mice [2] = experiment: Blood biochemistry after total body irradiation (Example 3); format: in vivo
Experimental: C57BL/6 male mice (24.8±1,6 g in body weight) aged 10 weeks were divided into 4 groups of 8 mice each. After acclimating to the environment, JAC4 (100 mg/kg) or an equal volume of vehicle (polyethylene glycol:ethanol:physiological saline=47.5:7.5:50, v/v/v) was orally administered to the mice once daily for 7 consecutive days. After that, the mice in one JAC4 treatment group and one vehicle group were subjected to total body X-ray irradiation (6 Gy) and JAC4 or vehicle treatment was continued. After 3 days, the administration of JAC4 or vehicle was discontinued, and blood samples, small intestine tissues, and thymus and spleen tissues were collected 4 days later.
The biochemical results of the mice were tested, with procedures as follows: Peripheral blood was collected from the orbit into an ethylenediaminetetraacetic acid K3 tube, followed by immediate blood biochemistry analysis on a blood analyzer.

C57BL/6 male mice [3] = experiment: Small intestine epithelial injury after abdominal X-ray irradiation at 3 or 6 Gy (Example 8); format: in vivo; conditions: for small intestine villus length: 4 days after
Experimental: CS7BL/6 male mice (24.8±1.6 g in body weight) aged 10 weeks were divided into 5 groups of 6 mice each. JAC4 (100 mg/kg) or an equal volume of vehicle (polyethylene glycol:ethanol:physiological saline=47.5:7.5:50, v/v/v) was orally administered to the mice once daily for 7 consecutive days. After that, the mice were subjected to abdominal X-ray irradiation at different doses (3 or 6 Gy) and JAC4 or vehicle treatment was continued. After 4 days, the small intestine tissues were collected for HE staining and inspection, the small intestine villus length and the ileum crypt height in all groups were measured and statistically analyzed, and the small intestine was histopathologically scored. The specific procedures are as follows: 3 mice were randomly selected from each group for statistical analysis of their small intestine tissue HE staining images, and for each mouse, 6 fields of view were randomly selected for inspection (*** p<0.001).

C57BL/6 male mice [4] = experiment: Small intestine epithelial injury after abdominal X-ray irradiation 12 Gy (Example 10); format: in vivo; conditions: for small intestine crypt height / small intestine histopathological score: JAC4 100 mg/kg; for small intestine villus length: JAC4 100 mg/kg oral 7 days
Experimental: C57BL/6 male mice (24.7±0.9 g in body weight) aged 10 weeks were divided into 3 groups: a vehicle control group (n=6), a vehicle+radiation group (n=12), and a JAC4+radiation group (n=12). JAC4 (100 mg/kg) or an equal volume of vehicle (polyethylene glycol:ethanol:physiological saline=47.5:7.5:50, v/v/v) was orally administered to the mice once daily for 7 consecutive days. After that, the mice in the radiation groups were subjected to abdominal X-ray irradiation (12 Gy). The mice in the vehicle control group (n=6), the vehicle+radiation group (n=6), and the JAC4+radiation group (n=6) were sacrificed at 6 h, and blood samples and small intestine tissues were collected. The remaining mice in the vehicle+radiation group (n=6) and the JAC4+radiation group (n=6) were sacrificed after day 8, and blood samples and small intestine tissues were collected. In the process, abdominal irradiation was given while sparing the femoral region to minimize damage to the hematopoietic system. After the abdominal irradiation, HE staining was performed on the small intestines of mice in all groups, and the small intestine villus lengths, histopathological scores of the small intestine tissue sections, and the crypt heights were measured in all groups (* p<0.05, *** p<0.001).

BEAS-2B cells = experiment: Plate colony formation, BEAS-2B (Example 22); format: cell-based, human
Experimental: The cell proliferation capacity was determined by a plate colony formation experiment, with the following specific procedures.
1. SPCA-1 and BEAS-2B cells (or SPCA-1 and BEAS-2B cells transfected with JWA-knockdown plasmids) in the exponential growth phase were plated in 6-well plates at a specific amount. The number of plated cells is as follows
2. After the cells adhered to the container wall, the cells were treated (or not treated) with […] JAC4 and treated with X-ray of 0, 2, 4, or 6 Gy. The medium was replaced with a fresh medium containing JAC4 at the corresponding concentration once every 2 days (or the cells were treated with X-ray of 0, 2, 4, or 6 Gy after adhesion, and the medium was replaced with a fresh medium once every 2 days).
3. After the cells were cultured for 10-14 days, colonies were visually observed. The culture medium was discarded, and the cells were fixed with methanol for 10-20 min, stained with crystal violet for 10 min, slowly washed with flowing clear water thrice, photographed, and counted for colonies containing>50 cells.
4. The colony forming efficiency (CFE)=(number of colonies formed/number of seeded cells) 100% was calculated, and the cell survival fraction (SF)=(colony forming efficiency of treatment group/colony forming efficiency of 0 Gy group)×100% was calculated from the colony forming efficiency.

SPCA-1 cells = experiment: Apoptosis (Hoechst 33342) and mitochondrial membrane potential (JC-1), SPCA-1 (Example 22); format: cell-based, human
Experimental: Severe DSBs may cause apoptosis. SPCA-1 and BEAS-2B cells were plated and cultured for 24 h before they were treated with 10 μM JAC4 for 24 h and 4 Gy X-ray for 24 h. The cells were stained with Hoechst 33342 (see Hoechst staining for apoptosis detection in Example 13) to evaluate the effect of JAC4 in combination with radiation on apoptosis. […] The decrease in mitochondrial membrane potential (JC-1) is a marker event in the early stage of apoptosis. The mitochondrial membrane potential was measured using fluorescent probe JC-1. The red fluorescence indicates a high mitochondrial membrane potential leading to JC-1 aggregate formation, and the green fluorescence indicates the mitochondrial membrane potential depolarization. The fluorescence ratio of red to green reflects the mitochondrial membrane potential and the number of early apoptotic cells.

[5] = non-radiation, JAC4 100 mg/kg oral
[6] = JAC4 100 mg/kg oral + abdominal X-ray 3 Gy
[7] = JAC4 100 mg/kg oral + abdominal X-ray 6 Gy
[8] = 6 h after abdominal X-ray 12 Gy
[9] = day 8 after abdominal X-ray 12 Gy

For `c1ccc(CSc2nnc(C3COc4ccccc4O3)o2)nc1` (centres unmarked) [JAC4], the “mean survival after radiation” value (C57BL/6 male mice [1]; JAC4 100 mg/kg oral once daily, 7 days before to 3 days after abdominal X-ray 12 Gy, observation day 30) was 16.8 ± 9.0 days, the “number of mice died” value (C57BL/6 male mice [1]; JAC4 100 mg/kg oral, ABI 12 Gy, 10 mice per group, day 15) was 4 mice and the “number of mice survived” value (C57BL/6 male mice [1]; JAC4 100 mg/kg oral, ABI 12 Gy, 10 mice per group, day 15, when all vehicle mice had died) was 6 mice. For the same molecule, the “weight loss after radiation” value (C57BL/6 male mice [1]; JAC4 100 mg/kg oral, ABI 12 Gy, vs vehicle) was “slower”, the ALT (C57BL/6 male mice [2]; JAC4 100 mg/kg oral + TBI 6 Gy) was 31.33±3.14 U/L and the AST (C57BL/6 male mice [2]; JAC4 100 mg/kg oral + TBI 6 Gy) was 110.17±20.86 U/L. For the same molecule, the CK-MB (C57BL/6 male mice [2]; JAC4 100 mg/kg oral + TBI 6 Gy) was 437.67±90.38 U/L, the LDH (C57BL/6 male mice [2]; JAC4 100 mg/kg oral + TBI 6 Gy) was 888.67±81.48 U/L and the SOD (C57BL/6 male mice [2]; JAC4 100 mg/kg oral + TBI 6 Gy) was 133.00±6.96 U/mL. The ALT (C57BL/6 male mice [2]; [5]) was 47.17±14.81 U/L, the AST (C57BL/6 male mice [2]; [5]) was 140.83±38.72 U/L and the CK-MB (C57BL/6 male mice [2]; [5]) was 565.50±261.37 U/L. For the same molecule, the LDH (C57BL/6 male mice [2]; [5]) was 444.00±94.58 U/L, the ileum crypt height (C57BL/6 male mice [3]; [6]) was 62.06±3.26 μm and the “small intestine histopathological score” value (C57BL/6 male mice [3]; [6]) was 1.50±0.55. For the same molecule, the “small intestine villus length” value (C57BL/6 male mice [3]; [6]) was 278.19±25.21 μm, the ileum crypt height (C57BL/6 male mice [3]; [7]) was 57.32±4.43 μm and the “small intestine histopathological score” value (C57BL/6 male mice [3]; [7]) was 4.17±0.98. The “small intestine villus length” value (C57BL/6 male mice [3]; [7]) was 278.25±23.79 μm, the “small intestine crypt height” value (C57BL/6 male mice [4]; [8]) was 49.80±4.06 μm and the “small intestine histopathological score” value (C57BL/6 male mice [4]; [8]) was 3.17±0.41. The “small intestine villus length” value (C57BL/6 male mice [4]; [8]) was 308.25±25.65 μm, the “small intestine crypt height” value (C57BL/6 male mice [4]; [9]) was 53.76±3.33 μm and the “small intestine histopathological score” value (C57BL/6 male mice [4]; [9]) was 2.83±0.41. The “small intestine villus length” value (C57BL/6 male mice [4]; [9]) was 300.38±33.27 μm, the “cell survival (radiosensitization curve)” value (BEAS-2B cells; 10 μM JAC4 + X-ray vs X-ray monotherapy) was “slightly increased” and the “number of colonies formed” value (BEAS-2B cells; JAC4 in combination with X-ray) was “increased”. For the same molecule, the “apoptosis (Hoechst 33342)” value (SPCA-1 cells; SPCA-1, 10 μM JAC4 24 h + 4 Gy X-ray 24 h) was “increased the pro-apoptotic effect of X-ray” and the “mitochondrial membrane potential (JC-1)” value (SPCA-1 cells; SPCA-1, JAC4 in combination with X-ray) was “aggravated the decrease in mitochondrial membrane potential”.

Source: patent US20250345318A1, “COMPOUND AND USE THEREOF IN PREVENTING OR TREATING RADIATION DAMAGE” (SIMCERE PHARMACEUTICAL CO., LTD., priority 2022, published 2025)
